From PubChem BioAssay (NCI) come the findings set out here.

Test systems include HCT-116 colon; EKVX NSCLC; ACHN renal; SNB-19 CNS; MDA-MB-231 breast; CAKI-1 renal; RPMI-8226 leukemia; M14 melanoma; RXF 393 renal; NCI/ADR-RES ovarian.
Test in all cases: growth of human tumour cells (NCI), 48 h

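Tested at 5 concentrations; 48 h exposure; 96-well plates; endpoints linearly interpolated, else capped at highest concentration. GI50 is the concentration that inhibits growth by half. At the TGI there is no net growth.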

Turning to `COC(=O)Nc1nc2ccc(C(=O)c3ccc(F)cc3)cc2[nH]1`, the GI50 with HCT-116 colon is 0.146 µM; in the assay with EKVX NSCLC, 0.438 µM; in the assay with ACHN renal, 1.05 µM; in the assay on SNB-19 CNS it was 0.322 µM; with MDA-MB-231 breast it was 0.563 µM; with CAKI-1 renal, 2.34 µM. Further, the GI50 with RPMI-8226 leukemia is 0.434 µM; with M14 melanoma it was 0.173 µM; with RXF 393 renal, 0.763 µM; in the assay with NCI/ADR-RES ovarian, 0.108 µM. Also, the TGI in the assay with HCT-116 colon is more than 100 µM; in the assay on EKVX NSCLC, more than 100 µM; in the assay on ACHN renal it was more than 100 µM; in the assay with SNB-19 CNS it was 15.4 µM; with MDA-MB-231 breast it was 13.6 µM; with CAKI-1 renal, more than 36.4 µM. Moreover, the TGI is more than 100 µM with M14 melanoma, more than 100 µM with RXF 393 renal and 0.562 µM in the assay on NCI/ADR-RES ovarian.

Consider `Nc1cc(N)c2nc(NCCc3ccc(Cl)c(Cl)c3)cnc2c1`, for which the GI50 in the assay on HCT-116 colon is 3.7 µM; with EKVX NSCLC, 12.1 µM; with ACHN renal it was 14.8 µM; with SNB-19 CNS it was 15.8 µM; with MDA-MB-231 breast it was 4.72 µM; in the assay with CAKI-1 renal it was 4.89 µM. In addition, the GI50 in the assay on RPMI-8226 leukemia is 2.54 µM; in the assay on M14 melanoma, 18 µM; in the assay with RXF 393 renal, 13.8 µM; in the assay with NCI/ADR-RES ovarian, 20.5 µM. Moreover, the TGI was determined as 15.1 µM with HCT-116 colon; 24.6 µM in the assay with EKVX NSCLC; 28 µM with ACHN renal; 30 µM in the assay on SNB-19 CNS; 16.5 µM in the assay with MDA-MB-231 breast; 18.2 µM with CAKI-1 renal. The TGI in the assay with RPMI-8226 leukemia was determined as 7.81 µM; with M14 melanoma, 38.5 µM; in the assay on RXF 393 renal, 30.2 µM; with NCI/ADR-RES ovarian, 39.7 µM.

Turning to `C=CC(=O)N1CCC[C@@H](n2nc(-c3ccc(Oc4ccccc4)cc3)c3c(N)ncnc32)C1`, the GI50 was more than 10 µM in the assay on HCT-116 colon; 0.396 µM in the assay on EKVX NSCLC; 0.669 µM with ACHN renal; more than 10 µM in the assay on SNB-19 CNS; 9.69 µM with MDA-MB-231 breast; more than 6.12 µM with CAKI-1 renal. Moreover, the GI50 with RPMI-8226 leukemia is more than 7.41 µM; with M14 melanoma, more than 7.36 µM; in the assay with RXF 393 renal it was more than 5.25 µM; in the assay with NCI/ADR-RES ovarian, more than 6.08 µM. Also, the TGI in the assay with HCT-116 colon, with EKVX NSCLC, in the assay on ACHN renal, in the assay on SNB-19 CNS, in the assay with MDA-MB-231 breast and in the assay with CAKI-1 renal was more than 10 µM each time. The TGI with RPMI-8226 leukemia, in the assay on M14 melanoma, in the assay on RXF 393 renal and in the assay with NCI/ADR-RES ovarian was more than 10 µM in each case.

Turning to `O=C(N/N=C/c1ccncc1)c1ccc(F)cc1`, the GI50 with HCT-116 colon, in the assay on EKVX NSCLC, in the assay on ACHN renal, in the assay with SNB-19 CNS, with MDA-MB-231 breast and in the assay with CAKI-1 renal was more than 40 µM throughout. Besides, the GI50 in the assay with RPMI-8226 leukemia, in the assay with M14 melanoma, in the assay on RXF 393 renal and in the assay with NCI/ADR-RES ovarian was more than 40 µM throughout. Further, the TGI with HCT-116 colon, in the assay on EKVX NSCLC, with ACHN renal, with SNB-19 CNS, in the assay on MDA-MB-231 breast and in the assay with CAKI-1 renal was more than 40 µM throughout. For the same compound, the TGI in the assay with RPMI-8226 leukemia, with M14 melanoma, in the assay on RXF 393 renal and with NCI/ADR-RES ovarian was more than 40 µM throughout.

For `Fc1ccc(Nc2nc3nonc3nc2Nc2ccc(I)cc2)cc1`, the GI50 in the assay on HCT-116 colon was 0.24 µM; in the assay with EKVX NSCLC, 0.273 µM; with ACHN renal, 0.171 µM; with SNB-19 CNS, 0.275 µM; in the assay on MDA-MB-231 breast it was 0.31 µM; with CAKI-1 renal, 0.251 µM. For the same compound, the GI50 in the assay on RPMI-8226 leukemia is 0.0855 µM; with M14 melanoma it was 0.289 µM; in the assay with RXF 393 renal, 0.237 µM; in the assay with NCI/ADR-RES ovarian, 0.272 µM. Further, the TGI with HCT-116 colon was 11.3 µM; in the assay with EKVX NSCLC it was 10.1 µM; in the assay with ACHN renal, 3.43 µM; with SNB-19 CNS it was 15.9 µM; in the assay with MDA-MB-231 breast, 1.72 µM; in the assay on CAKI-1 renal it was 14.7 µM. Moreover, the TGI in the assay on RPMI-8226 leukemia is 2.13 µM; in the assay on M14 melanoma it was 2.86 µM; in the assay with RXF 393 renal, 0.817 µM; with NCI/ADR-RES ovarian, 1.95 µM.

`Cc1cc(-c2cc(OC(=O)c3ccccc3)ccc2Cl)cc2nnc(Nc3ccc(OCCN4CCCC4)cc3)nc12`: the GI50 in the assay on HCT-116 colon is 1.59 µM; with EKVX NSCLC, 1.61 µM; in the assay on ACHN renal, 1.35 µM; with SNB-19 CNS it was 1.86 µM; in the assay on MDA-MB-231 breast it was 1.05 µM; with CAKI-1 renal it was 1.36 µM. Moreover, the GI50 in the assay with RPMI-8226 leukemia is 1.6 µM; in the assay with M14 melanoma, 1.64 µM; in the assay on RXF 393 renal, 1.16 µM; in the assay on NCI/ADR-RES ovarian, 1.86 µM. In addition, the TGI in the assay with HCT-116 colon is 3.16 µM; in the assay on EKVX NSCLC, 3.09 µM; with ACHN renal it was 2.63 µM; in the assay with SNB-19 CNS it was 3.37 µM; in the assay on MDA-MB-231 breast, 2.31 µM; with CAKI-1 renal it was 2.69 µM. For the same compound, the TGI turned out to be 3.63 µM in the assay with RPMI-8226 leukemia, 3.24 µM in the assay with M14 melanoma, 2.48 µM with RXF 393 renal and 4.1 µM with NCI/ADR-RES ovarian.

Regarding `COc1ncc(-c2ccc3nccc(C#CCCCCC(=O)NO)c3c2)cc1NS(=O)(=O)c1ccc(F)cc1F`, the GI50 in the assay with HCT-116 colon was 0.123 µM; with EKVX NSCLC it was 0.0569 µM; in the assay on ACHN renal it was 0.111 µM; in the assay with SNB-19 CNS, 0.147 µM; in the assay on MDA-MB-231 breast, 0.998 µM; in the assay with CAKI-1 renal, 0.875 µM. The GI50 in the assay on RPMI-8226 leukemia was 1.02 µM; with M14 melanoma, 0.148 µM; in the assay with RXF 393 renal it was 0.0466 µM; in the assay on NCI/ADR-RES ovarian, 3.59 µM. In addition, the TGI was 2.8 µM with HCT-116 colon; 4.09 µM with EKVX NSCLC; 12.3 µM with ACHN renal; 5.98 µM in the assay with SNB-19 CNS; 7.85 µM with MDA-MB-231 breast; 11.8 µM in the assay on CAKI-1 renal. Moreover, the TGI amounted to 4.79 µM in the assay on RPMI-8226 leukemia, 3.62 µM in the assay on M14 melanoma, 0.75 µM in the assay with RXF 393 renal and 30 µM in the assay on NCI/ADR-RES ovarian.
